Consider two compounds from patent publication US20090081157A1, “Immunostimulatory Combinations for Vaccine Adjuvants” (priority 2006, published 2009).

The subject of one series is B16-F10 tumors. The series is described as follows: Peritumoral immunotherapy of established B16-F10 melanoma tumors. To be noted: figure legends. It counts as in vivo, C57BL/6 mice. The protocol:
BALB/c mice were injected with 1×10^6 A 20 tumor cells s.c. and […] mice were injected with 1×10^6 B16-F10 tumor cells s.c. After a palpable tumor appeared (>4 mm), 50 μl PBS or plasmid DNA (50 μg) with or without TLR agonist molecules was injected into and around the tumors every other day×5. Tumors were measured every other day.
[…] mice were injected with 1×10^6 B16-F10 tumor cells s.c. After a palpable tumor appeared (>4 mm), 50 μl PBS or plasmid DNA (50 μg) with or without TLR agonist, in the presence or absence of cationic polymer (JetPEI™ Qbiogene Irvine, Calif.) molecules, was injected into and around the tumors every other day×5. Tumors were measured every other day.
Methods: B16-F10 melanoma cells were cultured in RPMI 1640 with 10% fetal bovine serum. Cells were detached with trypsin-EDTA and washed in phosphate-buffered saline (PBS). Then, 10E5 cells in 100 ul PBS were injected subcutaneously over the abdomen of female C57BL/6 female mice, 6- to 9-weeks old (Jackson Laboratories). […]
ATPγS, a nonhydrolyzable form of ATP was added to various agonists (pSP-D-CD40L+CpG+poly(I:C)+ATPe) and the combination was injected intratumorally in to mice presenting established B16F1 melanomas. […] Tumor size was measured every other day and plotted as the product of two orthogonal diameters (i.e., “tumor area”). […]

The conditions of series [1]: intravenous infusion, humans with non-small cell lung cancer; cited from earlier work.

Take “polyriboinosinic-polyribocytidylic acid [Poly I:C]”: the “synergy with CD40L against established B16-F10 tumors” value with B16-F10 tumors is reported as “synergizes with CD40L”. Regarding `Nc1ncnc2c1ncn2[C@@H]1O[C@H](COP(=O)(O)OP(=O)(O)OP(=O)(O)O)[C@@H](O)[C@H]1O` [ATP, adenosine 5′-triphosphate], the maximum tolerated dose in series [1] is 50 ug/kg per minute.
